From patent publication US10093699B2, “Peptides with antimicrobial, anticancer and/or wound-healing promoting activities, pharmaceutical compositions containing the same, and use of the peptides with antimicrobial, anticancer and/or wound-healing promoting activities” (priority 2015, dated 2018)
Converted amounts (≈) assume the structure as drawn. Where a SMILES comes first, the peptide text is derived from it. [ ]: non-standard residue; d: D form. 2Nal = N[C@@H](Cc1ccc2ccccc2c1)C(=O)O

Legend:
Assay type in all cases: cell-based
human fibroblast (HFW) = test: MTT cytotoxicity to normal fibroblasts; details: MTT assay
Experimental: Human lung cancer line PC9 and A549, oral squamous cell carcinoma cell line OECM-1 were cultured in RPMI medium supplemented with 10% fetal bovine serum and antibiotic. Human tongue carcinoma cell line SAS, oral cancer cell line C9, and human diploid fibroblast (HFW) were cultured in DMEM medium supplemented with 10% fetal bovine serum and antibiotic. Cells were cultured in a humidified incubator containing 5% CO2 at 37° C.
The MTT assay was employed to determine the in vitro cytotoxicity. All cancer cell lines were seeded in 96-well plate with concentration 5000 cells/100 μl/well and incubated for 24 hours. HFW was seeded with 8000 cells/100 μl/well.
After medium was removed, 100 μl fresh medium containing peptide (ranging from 50 μM to 3.13 μM, HFW was treated with 75 μM and 100 μM peptide additionally) was added to the wells. Following 3, 12 or 24 hour incubation, fresh medium with MTT (0.5 mg/ml) was replaced and incubated for 3 hours. After medium/MTT was removed, DMSO was added at 100 μl for dissolving the formazan crystal. Cell survival rate was calculated by measuring the absorbance at 540 nm using Multi-labeled Microplate Reader (VICTOR3). For cancer cells, medium mixed with H2O2 (aq) represented positive control (all cells died) while medium only represented negative control. For normal cells, medium only represented positive control (all cells lived) while medium mixed with H2O2 (aq) represented negative control (all cells died).
The cytotoxicities of S1 and its analogs on human lung cancer cells (i.e, PC9, PC9-G and A549), human oral cancer cells (i.e, C9, OECM-1, and SAS), and human fibroblast (HFW) were evaluated by MTT assay for 3, 12 and 24 hours.

[1] = test system: Staphylococcus aureus subsp strain (ATCC 25923, methicillin-resistant); test: microbe, parasite or virus in culture
Experimental: (§1) Escherichia coli strain (ATCC 25922), Staphylococcus aureus subsp strain (ATCC 25923, methicillin-resistant), and Pseudomonas aeruginosa Migula strain (ATCC 27853, ampicillin-resistant) were used to test the antibacterial activity of the peptides. Bacteria were cultured in sterilized Mueller-Hinton (MH) culturing medium at 200 rpm and 37° C. for 8 hours.
(§2) After 8 hours culture, concentration of the inoculums were determined by measuring absorbance of optical density at 600 nm (OD 600=1, equal to approximately 10^8 CFU/mL) with UV/Visible spectrophotometer.
(§3) The antibacterial activities were determined by the standard broth microdilution method of National Committee for Clinical Laboratory Standards with the LYM broth. The LYM broth contains 5.4 mM KCl, 5.6 mM Na2HPO4, 0.5 mM MgSO4, and 1.0 mM sodium citrate. In addition, 0.4 mg of ZnCl2, 2.0 mg of FeCl3. 6H2O, 0.1 mg of CuSO4. 5H2O, 0.1 mg of MnSO4.H2O, 0.1 mg of Na2B4O7.10H2O, 700 mg of amino acid mixtures without tryptophan (Clontech), and 20 mg of L-Tryptophan were added per liter of medium. A vitamin mixture (100×, Sigma) and glucose at final concentration of 2% were also added.
(§4) 1 μl peptide solutions (ranging from 5000 μg/ml to 78 μg/ml in serial dilution) was prepared and mixed with 99 μl inoculum (5×10^5 CFU/ml) in polypropylene 96-well plate. The turbidity at OD 600 nm was measured by ELISA plate reader (Thermo Max, Molecular Devices, Sunnyvale, Calif.). The absorbance of culture medium and inoculum suspension without peptides were used as the negative and positive control, respectively. The minimum inhibitory concentration (MIC) value is the lowest concentration of peptide at which there is no obvious growth (equal or more than 90%). […] All peptides were tested in triplicate.

[2] = test system: Escherichia coli strain (ATCC 25922); test: microbe, parasite or virus in culture; details: ATCC25922, E. coli ATCC 25922, LYM control, read-out: Minimum inhibitory concentration (MIC)
Experimental: as §1, §2, §3, §4

Row | Compound | degrees of cytotoxicities to HFW (rank order) (human fibroblast (HFW)) | Minimum inhibitory concentration (MIC) ([1]; ATCC 25923, 8 h) [µg/mL] | MIC [2] [µg/mL] | MIC ([1]; Staphylococcus aureus, ATCC25923, S. aureus ATCC 25923, LYM control, read-out: Minimum inhibitory concentration (MIC)) [µg/mL]
1 | CC(=O)N[C@@H](Cc1ccc2ccccc2c1)C(=O)N[C@@H](Cc1ccc2ccccc2c1)C(=O)N[C@@H](CCCCN)C(=O)N[C@@H](CCCCN)C(=O)N[C@@H](Cc1c[nH]c2ccccc12)C(=O)N[C@@H](CCCNC(=N)N)C(=O)N[C@@H](CCCCN)C(=O)N[C@@H](Cc1c[nH]c2ccccc12)C(=O)N[C@@H](CC(C)C)C(=O)N[C@@H](C)C(=O)N[C@@H](CCCCN)C(=O)N[C@@H](CCCCN)C(N)=O [Nal2-S1, Ac-Nal-Nal-KKWRKWLAKK-NH2] (Ac-[2Nal][2Nal]KKWRKWLAKK-NH2) | S1 peptide<K4R2-Nal2-S1 peptide<K6-Nal2-S1 peptide<Nal2-S1 peptide | 3.1 (≈ 1.72 µM) |  | 
2 | Ac-KKWRKWLAKK-NH2 [S1, Ac-KKWRKWLAKK-NH2, reference compound] | S1 peptide<K4R2-Nal2-S1 peptide<K6-Nal2-S1 peptide<Nal2-S1 peptide |  |  | 
3 | CC1(C)S[C@@H]2[C@H](NC(=O)[C@H](N)c3ccccc3)C(=O)N2[C@H]1C(=O)O [AP, Ampicillin, reference compound] |  |  | 25 (≈ 71.5 µM) | 3.1 (≈ 8.87 µM)
4 | CC(=O)N[C@@H](CCCCN)C(=O)N[C@@H](CCCCN)C(=O)N[C@@H](CCCCN)C(=O)N[C@@H](CCCCN)C(=O)N[C@@H](CCCCN)C(=O)N[C@@H](CCCCN)C(=O)N[C@@H](Cc1ccc2ccccc2c1)C(=O)N[C@@H](Cc1ccc2ccccc2c1)C(=O)N[C@@H](CCCCN)C(=O)N[C@@H](CCCCN)C(=O)N[C@@H](Cc1c[nH]c2ccccc12)C(=O)N[C@@H](CCCNC(=N)N)C(=O)N[C@@H](CCCCN)C(=O)N[C@@H](Cc1c[nH]c2ccccc12)C(=O)N[C@@H](CC(C)C)C(=O)N[C@@H](C)C(=O)N[C@@H](CCCCN)C(=O)N[C@@H](CCCCN)C(N)=O [K6-Nal2-S1, Ac-KKKKKK-Nal-Nal-KKWRKWLAKK-NH2] (Ac-KKKKKK[2Nal][2Nal]KKWRKWLAKK-NH2) | S1 peptide<K4R2-Nal2-S1 peptide<K6-Nal2-S1 peptide<Nal2-S1 peptide |  |  | 
